# Key:
# [1] = target: Sodium-dependent dopamine transporter (Rattus norvegicus, UniProt P23977); assay: Binding affinity towards dopamine transporter (DAT)
# [2] = target: Sodium-dependent serotonin transporter (Rattus norvegicus, UniProt P31652); assay: Binding affinity towards rat serotonin transporter (SERT)
# Sequence of Sodium-dependent serotonin transporter (P31652 whole entry): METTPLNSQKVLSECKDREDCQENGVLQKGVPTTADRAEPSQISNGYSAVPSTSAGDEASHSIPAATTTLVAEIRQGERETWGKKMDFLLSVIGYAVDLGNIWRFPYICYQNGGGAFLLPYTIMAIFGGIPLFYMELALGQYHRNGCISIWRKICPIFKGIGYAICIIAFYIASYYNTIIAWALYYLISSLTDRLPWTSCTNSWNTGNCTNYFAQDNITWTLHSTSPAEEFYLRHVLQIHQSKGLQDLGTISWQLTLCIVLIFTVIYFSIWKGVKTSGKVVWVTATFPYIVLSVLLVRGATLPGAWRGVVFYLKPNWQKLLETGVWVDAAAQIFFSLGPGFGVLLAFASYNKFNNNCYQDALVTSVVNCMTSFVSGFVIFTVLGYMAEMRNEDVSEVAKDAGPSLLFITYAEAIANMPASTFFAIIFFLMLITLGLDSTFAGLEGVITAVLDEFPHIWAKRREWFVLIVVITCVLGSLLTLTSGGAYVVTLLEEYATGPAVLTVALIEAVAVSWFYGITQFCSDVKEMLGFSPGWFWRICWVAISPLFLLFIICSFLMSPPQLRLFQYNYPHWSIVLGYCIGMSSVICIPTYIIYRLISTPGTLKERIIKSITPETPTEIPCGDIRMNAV
# Sequence of Sodium-dependent dopamine transporter (P23977 whole entry): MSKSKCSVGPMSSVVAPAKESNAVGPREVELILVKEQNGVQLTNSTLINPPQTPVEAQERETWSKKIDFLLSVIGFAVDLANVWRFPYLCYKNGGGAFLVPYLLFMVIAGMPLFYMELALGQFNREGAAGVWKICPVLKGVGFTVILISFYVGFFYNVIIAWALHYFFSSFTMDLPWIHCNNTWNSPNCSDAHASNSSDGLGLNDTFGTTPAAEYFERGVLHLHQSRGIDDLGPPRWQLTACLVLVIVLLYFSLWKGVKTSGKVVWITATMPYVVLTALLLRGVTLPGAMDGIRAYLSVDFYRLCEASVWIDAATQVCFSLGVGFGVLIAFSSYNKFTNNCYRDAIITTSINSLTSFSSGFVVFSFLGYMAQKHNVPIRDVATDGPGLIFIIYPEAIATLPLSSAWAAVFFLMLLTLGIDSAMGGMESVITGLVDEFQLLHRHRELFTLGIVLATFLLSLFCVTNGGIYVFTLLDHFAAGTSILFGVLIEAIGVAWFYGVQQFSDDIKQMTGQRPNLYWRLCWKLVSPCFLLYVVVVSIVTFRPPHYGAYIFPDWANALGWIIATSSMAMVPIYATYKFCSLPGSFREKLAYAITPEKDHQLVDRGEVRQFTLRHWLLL
Structure (SMILES),Ki [1],Ki [2]
OC(CCN1CCN(CCOC(c2ccc(F)cc2)c2ccc(F)cc2)CC1)c1ccc(Br)cc1 (configuration not stated),2.5 nM,50 nM
O=C(CCN1CCN(CCOC(c2ccccc2)c2ccccc2)CC1)c1cccc(F)c1,260 nM,1360 nM
COc1ccc2c(c1)CCC(CN1CCN(CCOC(c3ccc(F)cc3)c3ccc(F)cc3)CC1)C2=O (configuration not stated),22 nM,3 nM
O=C1CCCCC1CN1CCN(CCOC(c2ccccc2)c2ccccc2)CC1 (configuration not stated),250 nM,3300 nM
OC1CCCC1CN1CCN(CCOC(c2ccc(F)cc2)c2ccc(F)cc2)CC1 (configuration not stated),32 nM,920 nM
O=C1c2ccccc2CCC1CN1CCN(CCOC(c2ccccc2)c2ccccc2)CC1 (configuration not stated),390 nM,1050 nM
OC1CCCC1CN1CCN(CCOC(c2ccccc2)c2ccccc2)CC1 (configuration not stated),170 nM,2200 nM
O=C(CCN1CCN(CCOC(c2ccc(F)cc2)c2ccc(F)cc2)CC1)c1cccc(F)c1,89 nM,220 nM
OC(CCN1CCN(CCOC(c2ccccc2)c2ccccc2)CC1)c1ccc(Br)cc1 (configuration not stated),7.5 nM,340 nM
O=C1CCCCCC1CN1CCN(CCOC(c2ccccc2)c2ccccc2)CC1 (configuration not stated),270 nM,4100 nM
O=C(CCN1CCN(CCOC(c2ccccc2)c2ccccc2)CC1)c1ccc(Br)cc1,290 nM,2600 nM
COc1ccc2c(c1)CC[C@@H](CN1CCN(CCOC(c3ccccc3)c3ccccc3)CC1)[C@@H]2O,40 nM,93 nM
O=C(CCN1CCN(CCOC(c2ccc(F)cc2)c2ccc(F)cc2)CC1)c1ccc(Br)cc1,37 nM,480 nM
O=C(CCN1CCN(CCOC(c2ccccc2)c2ccccc2)CC1)c1cccs1,190 nM,1240 nM
COc1ccc2c(c1)CCC(CN1CCN(CCOC(c3ccc(F)cc3)c3ccc(F)cc3)CC1)=C2,14 nM,57 nM
COc1ccc2c(c1)CC[C@@H](CN1CCN(CCOC(c3ccccc3)c3ccccc3)CC1)[C@H]2O,32 nM,100 nM
OC(CCN1CCN(CCOC(c2ccc(F)cc2)c2ccc(F)cc2)CC1)c1ccco1 (configuration not stated),10 nM,150 nM
OC(CCN1CCN(CCOC(c2ccccc2)c2ccccc2)CC1)c1cccs1 (configuration not stated),15 nM,690 nM
O=C1CCCC1CN1CCN(CCOC(c2ccccc2)c2ccccc2)CC1 (configuration not stated),,5700 nM
O[C@H]1c2ccccc2CC[C@H]1CN1CCN(CCOC(c2ccc(F)cc2)c2ccc(F)cc2)CC1,1.3 nM,30 nM
COc1ccc2c(c1)CC[C@@H](CN1CCN(CCOC(c3ccc(F)cc3)c3ccc(F)cc3)CC1)[C@H]2O,7.3 nM,3 nM
OC(CCN1CCN(CCOC(c2ccc(F)cc2)c2ccc(F)cc2)CC1)c1cccs1 (configuration not stated),7.2 nM,59 nM

Structure (SMILES),Ki [1],Ki [2]
O=C1CCCCC1CN1CCN(CCOC(c2ccc(F)cc2)c2ccc(F)cc2)CC1 (configuration not stated),62 nM,1130 nM
O=C1c2ccccc2CCC1CN1CCN(CCOC(c2ccc(F)cc2)c2ccc(F)cc2)CC1 (configuration not stated),57 nM,110 nM
COc1ccc2c(c1)CCC(CN1CCN(CCOC(c3ccccc3)c3ccccc3)CC1)=C2,39 nM,530 nM
Fc1ccc(C(OCCN2CCN(CC3=Cc4ccccc4CC3)CC2)c2ccc(F)cc2)cc1,6.4 nM,260 nM
COc1ccc2c(c1)CCC(CN1CCN(CCOC(c3ccccc3)c3ccccc3)CC1)C2=O (configuration not stated),78 nM,70 nM
O=C1CCCCCC1CN1CCN(CCOC(c2ccc(F)cc2)c2ccc(F)cc2)CC1 (configuration not stated),49 nM,530 nM
C1=C(CN2CCN(CCOC(c3ccccc3)c3ccccc3)CC2)CCc2ccccc21,38 nM,1360 nM
O=C1CCCC1CN1CCN(CCOC(c2ccc(F)cc2)c2ccc(F)cc2)CC1 (configuration not stated),84 nM,970 nM
COc1ccc2c(c1)CC[C@@H](CN1CCN(CCOC(c3ccc(F)cc3)c3ccc(F)cc3)CC1)[C@@H]2O,18 nM,3 nM
O[C@@H]1c2ccccc2CC[C@H]1CN1CCN(CCOC(c2ccc(F)cc2)c2ccc(F)cc2)CC1,18 nM,32 nM
O[C@@H]1c2ccccc2CC[C@H]1CN1CCN(CCOC(c2ccccc2)c2ccccc2)CC1,59 nM,440 nM
OC1CCCCC1CN1CCN(CCOC(c2ccc(F)cc2)c2ccc(F)cc2)CC1 (configuration not stated),37 nM,580 nM
OC(CCN1CCN(CCOC(c2ccc(F)cc2)c2ccc(F)cc2)CC1)c1cccc(F)c1 (configuration not stated),3.9 nM,53 nM
O=C(CCN1CCN(CCOC(c2ccccc2)c2ccccc2)CC1)c1ccco1,300 nM,3300 nM
O=C(CCN1CCN(CCOC(c2ccc(F)cc2)c2ccc(F)cc2)CC1)c1cccs1,84 nM,110 nM
OC(CCN1CCN(CCOC(c2ccccc2)c2ccccc2)CC1)c1ccco1 (configuration not stated),19 nM,1940 nM
O[C@H]1c2ccccc2CC[C@H]1CN1CCN(CCOC(c2ccccc2)c2ccccc2)CC1,35 nM,500 nM
OC1CCCCCC1CN1CCN(CCOC(c2ccc(F)cc2)c2ccc(F)cc2)CC1 (configuration not stated),22 nM,480 nM
O=C(CCN1CCN(CCOC(c2ccc(F)cc2)c2ccc(F)cc2)CC1)c1ccco1,72 nM,350 nM
OC1CCCCCC1CN1CCN(CCOC(c2ccccc2)c2ccccc2)CC1 (configuration not stated),210 nM,3900 nM
OC(CCN1CCN(CCOC(c2ccccc2)c2ccccc2)CC1)c1cccc(F)c1 (configuration not stated),4.1 nM,910 nM
OC1CCCCC1CN1CCN(CCOC(c2ccccc2)c2ccccc2)CC1 (configuration not stated),210 nM,3300 nM
